Experimental data taken from patent publication US8785416B2, “Sulphated disaccharides for the treatment of neurodegenerative and/or neurovascular diseases” (Bioiberica, S.A., priority 2009, dated 2014).

What was measured:
[1] = system: SH-SY5Y human neuroblastoma cell line; experiment: Cell toxicity study, LDH release, SH-SY5Y cells incubated 48 hours; format: cell-based; settings: 100 μM, 48 hours incubation
Method: The cell toxicity studies were performed on the SH-SY5Y human neuroblastoma cell line, incubating said cells for 48 hours with the compound under study. The cell viability was assessed by quantifying the release of lactate dehydrogenase (LDH), which is a cytoplasmic enzyme which is released into the extracellular medium when the integrity of the cytoplasmic membrane is lost.

[2] = system: SH-SY5Y human neuroblastoma cells; experiment: Neuroprotection against cell death induced by rotenone plus oligomycin-A (oxidative stress), LDH release; format: cell-based
Method: An oxidative stress model consists of blocking mitochondrial respiratory chain complexes I and V by means of the combination of rotenone plus oligomycin-A, respectively. As a result of the interruption of the mitochondrial respiratory chain, the cell is unable to continue producing ATP, and the free radicals are generated exceeding the capacity of the cell to neutralize them, and as a result, cell death occurs.
SH-SY5Y human neuroblastoma cells were cultured in a monolayer in 75 cm^2 flasks with a vented stopper. The culture medium used was Dulbecco's Modified Eagle's Medium (DMEM) with a high glucose content ([…]) and supplemented with 10% foetal bovine serum, 2 mM L-Glutamine, 50 IU/mL penicillin and 50 μg/mL streptomycin.
The cell cultures were maintained in an incubator at 37° C. in a humid environment, with 5% CO2 and 95% air. The culture medium was changed twice a week, performing 1:4 passages when the cells reached 70-80% confluence. To perform the passages, the cells were detached by means of their treatment with trypsin-EDTA.
For the cell viability assays, the cells were seeded in sterile 48-well plates at a density of 80,000 cells/well. The experiments were performed 24-48 hours after their seeding.
To evaluate the neuroprotective effect of the compounds, the SH-SY5Y cells were preincubated for 24 hours with the compound under study, and subsequently incubated for 24 hours with the compound under study in the presence of the toxic substances (a combination of 10 μM rotenone and 1 μM oligomycin-A); at the end of this period the cell viability was evaluated by quantifying the release of the LDH enzyme.
The assessment of this enzyme was performed by means of a commercial kit (Cytotoxicity detection kit-LDH; Roche) following the instructions of the company. The samples were colorimetrically analyzed in a plate reader (Labsystems iEMS Reader MF), using the suitable filter at 490-600 nm and obtaining the absorbance values.
The % of cell death was defined as the % of LDH released into the extracellular medium with respect to the total (sum of intra- and extracellular LDH).
Compounds Ic and Ib were studied at four concentrations (0.001, 0.003, 0.01 and 0.03 μM), chondroitin sulphate (supplied by Bioibérica, S.A.) was assayed at two concentrations (10 and 60 μM) and trolox (Sigma Aldrich) was assayed at two concentrations (30 and 300 μM). The experiment also included the baseline (SH-SY5Y cells in the absence of compound and of toxic stimulus) and the control (SH-SY5Y cells cultured in the absence of compound and in the presence of the toxic stimulus rotenone plus oligomycin).

## methyl 2-acetamido-2-deoxy-3-O-(β-D-glucopyranosyluronic acid)-4,6-di-O-sulpho-α-D-glucopyranoside, trisodium salt [compound Ic]
[1]
  cell toxicity (release of LDH): did not show toxicity
[2]; 0.03 μM, 24 h preincubation + 24 h with 10 μM rotenone and 1 μM oligomycin-A
  maximum statistically significant protection against cell death (% of released LDH) induced by rotenone and oligomycin: 47%
[2]; Ic, Ib at 0.001-0.03 μM vs chondroitin sulphate 10 and 60 μM, trolox 30 and 300 μM
  protective effect compared with chondroitin sulphate and trolox: more effective than chondroitin sulphate and than trolox
